Source: ChEMBL document CHEMBL6153140, “Pestones A and B from a Fungus Pestalotiopsis sp. Bound to Mutant p53 and Changed Its Conformation” (J Nat Prod, 2025)
Active and inactive are the calls of the source. No cut-off for these calls is given here.

How the values were obtained:
[1] = Cytotoxicity against human SAOS-2 cells harboring p53 […] mutant incubated for 3 days by MTT assay; assay type: functional, cell-based; conditions: SAOS-2, 72 h
SAOS-2 [2] = experiment: Effect on conformation of p53 […] mutant in human SAOS-2 cells at 100 uM incubated for 6 hrs by Hoechst 33342 staining based immunofluorescence analysis; assay type: functional, cell-based
SAOS-2 [3] = experiment: Effect on conformation of p53 […] mutant in human SAOS-2 cells at 2 uM incubated for 6 hrs by Hoechst 33342 staining based immunofluorescence analysis; assay type: functional, cell-based
SAOS-2 [4] = experiment: Binding affinity to p53 […] mutant in human SAOS-2 cells assessed as thermal stabilization at 5 uM at 40 to 43 degreeC incubated for 1 hr by CETSA based Western blot analysis; assay type: cell-based
[5] = Induction of apoptosis in human SAOS-2 cells harboring p53 […] mutant assessed as viable cells at 4 uM incubated for 24 hrs by Annexin V-FITC/PI staining based flow cytometric analysis (reference value: 94.3%); assay type: functional; conditions: read-out: Activity
[6] = Induction of apoptosis in human SAOS-2 cells harboring p53 […] mutant assessed as early apoptotic cells at 4 uM incubated for 24 hrs by Annexin V-FITC/PI staining based flow cytometric analysis (reference value: 4.1%); assay type: functional
[7] = Induction of apoptosis in human SAOS-2 cells harboring p53 […] mutant assessed as late apoptotic cells at 4 uM incubated for 24 hrs by Annexin V-FITC/PI staining based flow cytometric analysis (reference value: 1.2%); assay type: functional
[8] = Induction of apoptosis in human SAOS-2 cells harboring p53 […] mutant assessed as necrotic cells at 4 uM incubated for 24 hrs by Annexin V-FITC/PI staining based flow cytometric analysis (reference value: 0.4%); assay type: functional
[9] = Induction of apoptosis in human SAOS-2 cells harboring p53 […] mutant assessed as fold increase in early apoptotic cells at 4 uM incubated for 24 hrs by Annexin V-FITC/PI staining based flow cytometric analysis; assay type: functional
[10] = Induction of apoptosis in human SAOS-2 cells harboring p53 […] mutant assessed as fold increase in late apoptotic cells at 4 uM incubated for 24 hrs by Annexin V-FITC/PI staining based flow cytometric analysis; assay type: functional
HuCCT-1 = experiment: Antitumor activity against human HuCCT-1 cells harboring p53 […] mutant xenografted in male BALB/c Slc-nu/nu mouse model assessed as reduction in tumor volume administered IT(Intratumoral) every other day and measured on day 13 (reference value: 56 to 98 mm3); assay type: functional; conditions: time 13 day
[11] = Toxicity in male BALB/c Slc-nu/nu mouse assessed as effect on body weight loss administered IT(Intratumoral) every other day and measured after 13 days; conditions: in vivo, 312 h, time 13 day

In the case of `CC(C)=C[C@@H](O)[C@]12O[C@H]1[C@H](O)C1=C(C2=O)C2C(C)OC1[C@]13C(=O)[C@@]4([C@H](O)C=C(C)C)O[C@H]4[C@H](O)C1=CO[C@@H](C)[C@H]23` (some centres not stated), the IC50 [1] is reported as > 20 µM.

In the case of `C/C=C/C1=C(CO)[C@@H](O)[C@@H]2O[C@]2([C@H](O)C=C(C)C)C1=O`, the Activity (SAOS-2 [2]) is reported as “inactive” and the IC50 [1] is reported as > 20 µM.

For `CC(C)=C[C@@H](O)[C@]12O[C@H]1C(=O)C1=C(C2=O)C2[C@@H]3[C@@H](C)OC=C4C(=O)[C@@H]5O[C@]5([C@H](O)C=C(C)C)C(=O)[C@]43C1O[C@@H]2C` (some centres not stated), the Activity (SAOS-2 [3]) was “Active”, the Activity (SAOS-2 [4]) was “Active” and the IC50 [1] was 1 µM. The viability at 4 µM [5] was 80%, the Activity [6] was 13.6% and the Activity [7] was 5.7%. For the same compound, the Activity [8] was 0.7%, the “fold change (FC)” value [9] was 3.3 and the “fold change (FC)” value [10] was 4.8. The Activity (HuCCT-1) was 140 mm3 and the Activity [11] was “Non-toxic”.

For `CC(C)=C[C@@H](O)[C@]12O[C@H]1C(=O)C1=C(C2=O)C2[C@H](C)OC1[C@]13C(=O)[C@@]4([C@H](O)C=C(C)C)O[C@H]4C(=O)C1=CO[C@@H](C)[C@H]23` (some centres not stated), the Activity (SAOS-2 [3]) was “Active” and the IC50 [1] was 1.1 µM.

Work on `C/C=C/C1=C(CO)C(=O)[C@@H]2O[C@]2([C@H](O)C=C(C)C)C1=O` yielded an IC50 [1] of 0.92 µM.
